Source: ChEMBL document CHEMBL4507276 (2021)
pIC50: −log10 of the molar value.

How the values were obtained:
[1] = biological target: Serine/threonine-protein kinase MARK1 (Homo sapiens) (UniProt Q9P0L2); details: Compound concentration 1000.0 nM
[2] = biological target: Arachidonate 5-lipoxygenase-activating protein (Homo sapiens, UniProt P20292); experiment: Functional inhibition in mouse whole blood; assay type: tissue-based; details: target entry is the homologue from another species
[3] = biological target: 5-hydroxytryptamine receptor 2A (Homo sapiens) (UniProt P28223); experiment: 5HT2AH_AGON Cerep selectivity data (BI); details: filed as agonist, Compound concentration 20.0 uM
[4] = biological target: Adenosine receptor A1 (Homo sapiens) (UniProt P30542); experiment: A1H_AGON Cerep selectivity data (BI); details: filed as agonist, Compound concentration 20.0 uM
[5] = biological target: Bombesin receptor subtype-3 (Homo sapiens) (UniProt P32247); experiment: BB3H_AGON Cerep selectivity data (BI); details: filed as agonist, Compound concentration 20.0 uM
[6] = biological target: D(3) dopamine receptor (Homo sapiens) (UniProt P35462); experiment: D3/HU Eurofins-Panlabs selectivity data (BI); details: Compound concentration 10.0 uM
[7] = biological target: Endothelin-1 receptor (Homo sapiens) (UniProt P25101); experiment: ETA/HU Eurofins-Panlabs selectivity data (BI); details: Compound concentration 10.0 uM
[8] = biological target: Thyroid hormone receptor alpha (Rattus norvegicus) (UniProt P63059); experiment: THYROID HORM Eurofins-Panlabs selectivity data (BI); details: Compound concentration 10.0 uM
[9] = biological target: Ephrin type-A receptor 4 (Homo sapiens) (UniProt P54764); experiment: EPHA4 Invitrogen selectivity data (BI); details: Compound concentration 3.0 uM
[10] = biological target: T1, Serine/threonine-protein kinase haspin (Homo sapiens) (UniProt Q8TF76); experiment: GSG2 Invitrogen selectivity data (BI); details: Compound concentration 3.0 uM
T1 sequence (whole entry): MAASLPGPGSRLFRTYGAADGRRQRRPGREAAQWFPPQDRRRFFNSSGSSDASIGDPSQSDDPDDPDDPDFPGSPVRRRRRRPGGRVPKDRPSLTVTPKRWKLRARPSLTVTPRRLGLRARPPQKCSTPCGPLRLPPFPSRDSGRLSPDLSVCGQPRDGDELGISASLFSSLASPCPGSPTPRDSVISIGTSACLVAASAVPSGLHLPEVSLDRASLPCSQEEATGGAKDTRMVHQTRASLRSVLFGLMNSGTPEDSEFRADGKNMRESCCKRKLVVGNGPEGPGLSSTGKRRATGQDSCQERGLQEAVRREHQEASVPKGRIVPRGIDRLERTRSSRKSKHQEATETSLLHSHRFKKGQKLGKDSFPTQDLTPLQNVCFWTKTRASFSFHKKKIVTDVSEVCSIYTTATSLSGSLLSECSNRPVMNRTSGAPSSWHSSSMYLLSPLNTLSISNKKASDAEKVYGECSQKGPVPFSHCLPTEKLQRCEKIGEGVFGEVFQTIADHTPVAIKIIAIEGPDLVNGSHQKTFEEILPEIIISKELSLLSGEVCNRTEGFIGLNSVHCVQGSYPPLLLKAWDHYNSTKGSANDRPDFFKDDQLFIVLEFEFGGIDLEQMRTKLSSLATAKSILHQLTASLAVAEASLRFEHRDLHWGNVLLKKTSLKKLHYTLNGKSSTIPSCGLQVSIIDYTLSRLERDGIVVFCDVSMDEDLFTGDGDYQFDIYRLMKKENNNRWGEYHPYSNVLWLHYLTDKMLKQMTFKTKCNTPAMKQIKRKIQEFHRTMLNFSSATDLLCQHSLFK

[11] = biological target: T2, Serine/threonine-protein kinase Nek2 (Homo sapiens) (UniProt P51955); experiment: NEK2 Invitrogen selectivity data (BI); details: Compound concentration 3.0 uM
T2 sequence (whole entry): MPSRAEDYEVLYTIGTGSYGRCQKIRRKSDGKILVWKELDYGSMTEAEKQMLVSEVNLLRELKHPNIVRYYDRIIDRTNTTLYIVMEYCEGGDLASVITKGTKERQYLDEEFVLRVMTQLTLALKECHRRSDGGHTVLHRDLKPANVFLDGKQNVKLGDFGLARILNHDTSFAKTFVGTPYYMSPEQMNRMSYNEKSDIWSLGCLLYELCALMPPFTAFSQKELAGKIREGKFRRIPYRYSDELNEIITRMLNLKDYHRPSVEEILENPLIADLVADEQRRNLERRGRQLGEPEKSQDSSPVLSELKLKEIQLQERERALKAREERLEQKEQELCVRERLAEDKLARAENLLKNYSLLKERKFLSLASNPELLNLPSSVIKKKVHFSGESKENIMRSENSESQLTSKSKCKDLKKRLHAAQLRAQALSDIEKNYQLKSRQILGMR

[12] = biological target: T3, Protein kinase C iota type (Homo sapiens) (UniProt P41743); experiment: PRKCI Invitrogen selectivity data (BI); details: Compound concentration 3.0 uM
T3 sequence (whole entry): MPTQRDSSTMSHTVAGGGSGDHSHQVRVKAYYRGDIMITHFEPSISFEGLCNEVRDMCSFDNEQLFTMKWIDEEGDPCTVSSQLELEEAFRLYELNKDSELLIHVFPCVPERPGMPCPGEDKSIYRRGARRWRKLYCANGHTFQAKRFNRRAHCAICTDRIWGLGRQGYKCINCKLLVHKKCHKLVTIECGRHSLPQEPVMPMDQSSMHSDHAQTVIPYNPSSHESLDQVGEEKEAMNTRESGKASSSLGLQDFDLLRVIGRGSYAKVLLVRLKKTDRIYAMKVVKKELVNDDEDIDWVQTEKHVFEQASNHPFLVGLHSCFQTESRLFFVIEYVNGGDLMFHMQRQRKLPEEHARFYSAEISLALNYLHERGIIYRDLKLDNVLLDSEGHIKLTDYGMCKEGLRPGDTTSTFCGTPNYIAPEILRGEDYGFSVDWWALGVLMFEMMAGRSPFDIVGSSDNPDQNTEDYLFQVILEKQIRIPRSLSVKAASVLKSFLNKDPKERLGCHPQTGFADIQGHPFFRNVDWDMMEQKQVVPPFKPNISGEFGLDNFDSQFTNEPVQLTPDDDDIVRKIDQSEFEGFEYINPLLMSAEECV

[13] = biological target: T4, Tyrosine-protein kinase TXK (Homo sapiens) (UniProt P42681); experiment: TXK Invitrogen selectivity data (BI); details: Compound concentration 3.0 uM
T4 sequence (whole entry): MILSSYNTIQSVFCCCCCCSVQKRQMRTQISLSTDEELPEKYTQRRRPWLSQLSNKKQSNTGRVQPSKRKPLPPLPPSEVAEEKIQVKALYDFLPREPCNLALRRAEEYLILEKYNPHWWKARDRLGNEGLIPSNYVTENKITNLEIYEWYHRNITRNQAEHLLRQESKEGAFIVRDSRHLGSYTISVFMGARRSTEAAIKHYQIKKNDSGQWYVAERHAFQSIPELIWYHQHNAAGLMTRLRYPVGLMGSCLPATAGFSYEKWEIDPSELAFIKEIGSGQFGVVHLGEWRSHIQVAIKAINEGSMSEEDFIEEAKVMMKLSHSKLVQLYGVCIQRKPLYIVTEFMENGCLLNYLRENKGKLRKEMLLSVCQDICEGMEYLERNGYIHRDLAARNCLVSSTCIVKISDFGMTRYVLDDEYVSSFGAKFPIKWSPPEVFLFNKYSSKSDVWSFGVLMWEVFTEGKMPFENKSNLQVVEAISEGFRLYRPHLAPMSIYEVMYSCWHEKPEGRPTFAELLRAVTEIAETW

Bombesin receptor subtype-3 (Homo sapiens), sequence (P32247 whole entry): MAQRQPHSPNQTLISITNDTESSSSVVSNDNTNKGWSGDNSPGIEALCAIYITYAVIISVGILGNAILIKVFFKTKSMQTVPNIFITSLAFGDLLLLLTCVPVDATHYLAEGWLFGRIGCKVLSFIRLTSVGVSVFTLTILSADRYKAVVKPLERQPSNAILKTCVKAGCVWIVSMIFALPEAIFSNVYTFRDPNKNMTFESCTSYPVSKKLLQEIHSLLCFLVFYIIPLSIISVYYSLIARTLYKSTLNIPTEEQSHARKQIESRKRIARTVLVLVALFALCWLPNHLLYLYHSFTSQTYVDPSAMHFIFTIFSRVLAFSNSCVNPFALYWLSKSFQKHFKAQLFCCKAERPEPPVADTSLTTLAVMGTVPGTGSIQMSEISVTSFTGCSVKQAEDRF
Ephrin type-A receptor 4 (Homo sapiens), sequence (P54764 whole entry): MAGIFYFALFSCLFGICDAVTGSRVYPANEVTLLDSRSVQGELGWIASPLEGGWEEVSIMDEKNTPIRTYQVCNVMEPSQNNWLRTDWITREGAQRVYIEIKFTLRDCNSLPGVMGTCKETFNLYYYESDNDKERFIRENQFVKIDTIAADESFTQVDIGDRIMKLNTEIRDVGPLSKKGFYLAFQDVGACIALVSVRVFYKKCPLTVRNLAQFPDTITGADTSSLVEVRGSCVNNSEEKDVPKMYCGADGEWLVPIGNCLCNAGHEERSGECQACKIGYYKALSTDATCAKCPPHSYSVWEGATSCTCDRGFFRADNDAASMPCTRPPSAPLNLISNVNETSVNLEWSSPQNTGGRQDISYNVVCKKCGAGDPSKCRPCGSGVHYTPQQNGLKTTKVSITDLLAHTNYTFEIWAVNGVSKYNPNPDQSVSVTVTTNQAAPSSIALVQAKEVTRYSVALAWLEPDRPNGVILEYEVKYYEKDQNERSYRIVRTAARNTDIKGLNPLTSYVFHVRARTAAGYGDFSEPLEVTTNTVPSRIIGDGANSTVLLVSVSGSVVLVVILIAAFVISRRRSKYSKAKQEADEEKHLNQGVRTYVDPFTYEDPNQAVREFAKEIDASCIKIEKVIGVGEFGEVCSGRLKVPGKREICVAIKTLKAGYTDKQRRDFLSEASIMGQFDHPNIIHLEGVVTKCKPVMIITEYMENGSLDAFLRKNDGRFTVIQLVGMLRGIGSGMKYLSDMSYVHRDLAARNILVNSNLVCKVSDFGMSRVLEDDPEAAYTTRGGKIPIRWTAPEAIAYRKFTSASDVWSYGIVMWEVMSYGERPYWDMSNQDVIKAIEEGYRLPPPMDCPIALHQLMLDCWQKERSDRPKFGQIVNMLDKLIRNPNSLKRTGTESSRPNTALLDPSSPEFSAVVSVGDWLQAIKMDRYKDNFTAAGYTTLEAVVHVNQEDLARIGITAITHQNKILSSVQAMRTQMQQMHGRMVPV
Serine/threonine-protein kinase MARK1 (Homo sapiens), sequence (Q9P0L2 whole entry, looked up): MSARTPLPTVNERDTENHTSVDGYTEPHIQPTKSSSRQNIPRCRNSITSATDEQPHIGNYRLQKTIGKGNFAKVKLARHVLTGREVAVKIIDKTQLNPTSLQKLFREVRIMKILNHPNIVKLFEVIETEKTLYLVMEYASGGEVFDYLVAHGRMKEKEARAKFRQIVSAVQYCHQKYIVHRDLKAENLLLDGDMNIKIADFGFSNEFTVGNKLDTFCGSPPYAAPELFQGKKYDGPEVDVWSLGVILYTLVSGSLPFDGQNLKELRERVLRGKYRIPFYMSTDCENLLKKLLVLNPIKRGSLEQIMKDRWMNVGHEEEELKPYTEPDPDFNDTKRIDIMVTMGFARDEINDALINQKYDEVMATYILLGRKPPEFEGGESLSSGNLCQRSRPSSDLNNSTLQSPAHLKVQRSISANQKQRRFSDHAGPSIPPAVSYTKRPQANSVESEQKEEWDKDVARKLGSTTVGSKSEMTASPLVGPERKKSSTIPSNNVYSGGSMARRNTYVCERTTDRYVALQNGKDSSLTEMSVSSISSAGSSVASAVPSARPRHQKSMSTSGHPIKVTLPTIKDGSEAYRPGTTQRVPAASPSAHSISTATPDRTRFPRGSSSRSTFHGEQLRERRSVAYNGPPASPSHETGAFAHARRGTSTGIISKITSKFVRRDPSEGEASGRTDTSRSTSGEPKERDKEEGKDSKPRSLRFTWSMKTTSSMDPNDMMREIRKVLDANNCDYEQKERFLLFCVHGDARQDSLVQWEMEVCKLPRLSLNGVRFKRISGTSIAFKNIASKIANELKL
Adenosine receptor A1 (Homo sapiens), sequence (P30542 whole entry): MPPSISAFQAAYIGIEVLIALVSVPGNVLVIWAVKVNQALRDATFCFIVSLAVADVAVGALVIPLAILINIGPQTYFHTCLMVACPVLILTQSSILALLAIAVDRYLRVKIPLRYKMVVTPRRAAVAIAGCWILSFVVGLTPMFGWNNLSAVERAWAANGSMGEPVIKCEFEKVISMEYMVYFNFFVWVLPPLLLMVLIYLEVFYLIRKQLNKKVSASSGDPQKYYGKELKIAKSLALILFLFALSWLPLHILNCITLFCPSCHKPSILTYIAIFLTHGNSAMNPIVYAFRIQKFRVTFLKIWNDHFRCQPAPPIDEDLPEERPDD
Endothelin-1 receptor (Homo sapiens), sequence (P25101 whole entry): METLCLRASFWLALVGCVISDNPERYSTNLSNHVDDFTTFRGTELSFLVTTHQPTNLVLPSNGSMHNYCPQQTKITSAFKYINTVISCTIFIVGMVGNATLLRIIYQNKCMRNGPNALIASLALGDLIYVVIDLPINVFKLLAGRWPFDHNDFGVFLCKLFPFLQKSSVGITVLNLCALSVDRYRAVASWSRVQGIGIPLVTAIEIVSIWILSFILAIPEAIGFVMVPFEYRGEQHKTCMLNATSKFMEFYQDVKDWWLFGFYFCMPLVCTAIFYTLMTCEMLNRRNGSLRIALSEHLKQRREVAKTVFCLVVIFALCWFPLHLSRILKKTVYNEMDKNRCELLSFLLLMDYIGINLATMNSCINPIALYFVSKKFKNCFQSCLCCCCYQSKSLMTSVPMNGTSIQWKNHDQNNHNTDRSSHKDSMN
5-hydroxytryptamine receptor 2A (Homo sapiens), sequence (P28223 whole entry): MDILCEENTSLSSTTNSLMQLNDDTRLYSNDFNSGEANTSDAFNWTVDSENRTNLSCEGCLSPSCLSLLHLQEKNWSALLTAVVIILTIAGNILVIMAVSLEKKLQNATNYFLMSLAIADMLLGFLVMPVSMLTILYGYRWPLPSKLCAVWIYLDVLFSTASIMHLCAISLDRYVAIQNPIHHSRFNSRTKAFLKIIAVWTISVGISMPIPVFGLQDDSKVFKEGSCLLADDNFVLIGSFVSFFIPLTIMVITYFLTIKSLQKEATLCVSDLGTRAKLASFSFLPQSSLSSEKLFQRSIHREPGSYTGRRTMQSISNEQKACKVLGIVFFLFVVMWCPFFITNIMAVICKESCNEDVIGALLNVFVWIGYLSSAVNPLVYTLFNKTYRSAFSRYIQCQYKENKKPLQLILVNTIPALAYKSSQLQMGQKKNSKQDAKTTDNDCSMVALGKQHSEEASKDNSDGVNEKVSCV
Thyroid hormone receptor alpha (Rattus norvegicus), sequence (P63059 whole entry): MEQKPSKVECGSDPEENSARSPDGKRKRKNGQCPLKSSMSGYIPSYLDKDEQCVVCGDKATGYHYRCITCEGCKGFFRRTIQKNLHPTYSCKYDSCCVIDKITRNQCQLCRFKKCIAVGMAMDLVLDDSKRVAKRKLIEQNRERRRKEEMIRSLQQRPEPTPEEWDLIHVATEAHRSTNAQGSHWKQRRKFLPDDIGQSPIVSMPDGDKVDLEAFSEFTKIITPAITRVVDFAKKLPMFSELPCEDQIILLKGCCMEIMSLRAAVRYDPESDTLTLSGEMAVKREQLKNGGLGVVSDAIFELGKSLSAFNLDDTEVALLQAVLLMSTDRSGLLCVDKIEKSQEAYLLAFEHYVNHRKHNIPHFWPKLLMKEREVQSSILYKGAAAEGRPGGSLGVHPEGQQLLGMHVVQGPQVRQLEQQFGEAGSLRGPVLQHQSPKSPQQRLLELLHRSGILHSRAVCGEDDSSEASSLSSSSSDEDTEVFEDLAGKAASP
Arachidonate 5-lipoxygenase-activating protein, sequence (P20292 whole entry): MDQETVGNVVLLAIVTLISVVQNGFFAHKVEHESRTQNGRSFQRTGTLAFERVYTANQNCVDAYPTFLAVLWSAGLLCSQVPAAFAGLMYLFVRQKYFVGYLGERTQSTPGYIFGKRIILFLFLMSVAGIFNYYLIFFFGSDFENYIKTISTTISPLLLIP
D(3) dopamine receptor (Homo sapiens), sequence (P35462 whole entry): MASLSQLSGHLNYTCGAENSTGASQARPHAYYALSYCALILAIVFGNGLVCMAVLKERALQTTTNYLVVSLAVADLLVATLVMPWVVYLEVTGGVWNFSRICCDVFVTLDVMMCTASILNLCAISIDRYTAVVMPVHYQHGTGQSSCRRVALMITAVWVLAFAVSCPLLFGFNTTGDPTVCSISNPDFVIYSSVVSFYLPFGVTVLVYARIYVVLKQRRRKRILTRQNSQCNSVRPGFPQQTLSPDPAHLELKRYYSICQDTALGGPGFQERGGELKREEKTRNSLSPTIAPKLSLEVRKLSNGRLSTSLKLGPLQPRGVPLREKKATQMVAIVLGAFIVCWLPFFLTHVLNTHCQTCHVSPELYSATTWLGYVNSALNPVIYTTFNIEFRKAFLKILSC

Row | SMILES | residual activity [1] [%] | pIC50 [2] | residual activity [3] [%] | residual activity [4] [%] | residual activity [5] [%] | residual activity [6] [%] | residual activity [7] [%] | residual activity [8] [%] | residual activity [9] [%] | residual activity [10] [%] | residual activity [11] [%] | residual activity [12] [%] | residual activity [13] [%]
1 | CN(C)C(=O)Cn1cc(-c2nc(C3(c4ccc(-c5cnc(N)nc5)cc4)CC3)no2)cn1 [BI 0153] | 100 |  |  |  |  |  |  |  |  |  |  |  | 
2 | CN(C)C(=O)Cn1cc(-c2nc([C@@](C)(c3ccc(-c4cnc(N)nc4)cc3)C3CC3)no2)cn1 [BI 665915] |  | 5.32 | 102 | 81 | 108 | 97 | 98 | 80 | 95 | 100 | 88 | 97 | 95
